EC50 and IC50 data for 15 molecules are collected here from patent publication US20260242398A1, “BENZOPYRIMIDIN-4(3H)-ONES AS PI3K INHIBITORS” (OnKure, Inc., priority 2022, published 2026).

Holding throughout (format): cell-based
Assay [1] has as its system T47D cells expressing mutant PI3Ka (H1047R). The assay is described as follows: In vitro cell proliferation (CellTiter-Glo, 72 hours), T47D cells. The settings on record: inhibition of proliferation, read-out: Avg T-47D EC50. The protocol: (§1) In Vitro Cell Proliferation: Determination of EC50 Values for Inhibition of Proliferation in T47D Cells Expressing Mutant PI3Ka (H1047R) Mutation and SKBR3 Cells Express WT PI3Ka.
(§2) T47D or SKBR3 cells were trypsinized, resuspended in culture media and seeded onto assay ready plates. T47D culture media consisted of RPMI, 10% FBS and Insulin (0.2 units/mL). SKBR3 culture media consisted of McCoys 5a and 10% FBS. Cells were seeded at a density of 1,500 cells/well and dispensed in 50 uL onto 384 well assay ready plates (Corning, 89089-790). Assay ready plates had previously been stamped with 10-point dilutions of compounds of interest, as well as controls. The Echo655 is used to stamp plates at 40 nL of compound or DMSO. Cells were grown for 72 hours at 37° Celsius and 5% CO2. After 72 hours, cells were equilibrated at room temperature for 15 minutes. 30 uL of CellTiter-Glo reagent is added to the plate, which is then shaken for 30 minutes at temperature at 300-500 rpm. Cells are then read on an Envision plate reader. The percentage of inhibition of proliferation was calculated using the following formula: % Inhibition=100×(LumD−LumSample)/(LumD−LumInh), where D is obtained from cells treated with 0.1% DMSO only; Inh is obtained from cells treated with 10 uM Alpelisib. The effective concentration achieving 50% inhibition of proliferation (EC50) is calculated by fitting the Curve using XWfit (v5.3.1.3), equation 201: Y=Bottom+(Top−Bottom)/(1+10^((Log EC50−X)*HillSlope)).
In general terms: In ATP-based viability assays light output follows the ATP content of the culture.

Assay [2] has as its system SKBR3 cells express WT PI3Ka. Nature of the assay: In vitro cell proliferation (CellTiter-Glo, 72 hours), SKBR3 cells. The conditions noted are these: inhibition of proliferation. The protocol:
as §1, §2

Assay [3] has as its system phosphorylation of AKT (pAKT) in T47D cells expressing mutant PI3Ka (H1047R). Nature of the assay: In vitro cell pAKT (Ser473) HTRF, T47D cells. The conditions noted are these: inhibition of pAKT, 6 hour, read-out: Avg T-47D IC50. The protocol:
(§3) In Vitro Cell pAKT: Determination of IC50 Values for Inhibition of Phosphorylation of AKT (pAKT) in T47D Cells Expressing Mutant PI3Ka (H1047R) Mutation and SKBR3 Cells Express WT PI3Ka.
(§4) T47D or SKBR3 cells were trypsinized, resuspended in culture media and seeded onto assay ready plates. T47D culture media consisted of RPMI, 10% FBS and Insulin (0.2 units/mL). SKBR3 culture media consisted of McCoy's 5a and 10% FBS. Cells were seeded at a density of 5000 cells/well and dispensed in 12.5 uL onto 384 well assay ready plates (Perkin Elmer, 6008238)). Assay ready plates had previously been stamped with 10-point dilutions of compounds of interest, as well as controls. The Echo655 is used to stamp plates at 12.5 nL of compound or DMSO. Cells were grown for 6 hour at 37° Celsius and 5% CO2. After 6 hour, 4 uL of Lysis buffer reagent was added to the plate, which was then centrifuged for 1 minute at 1000 rpm. Then the plate was incubated at room temperature for 30 minutes. After 30 minutes, 4 uL of antibody mix containing Eu Cryptate, d2 Cryptate, and detection buffer, was added to the plate. The plate was centrifuged for 1 minute at 1000 rpm and then incubated overnight at room temperature. The plate was read on an Envision plate reader using the HTRF protocol. The percentage of inhibition of AKT phosphorylation was calculated using the following formula: % Inhibition=100×(pAKTHC−pAKTSample)/(pAKTHC−pAKTLC)), where pAKTHC is obtained from cells treated with 0.1% DMSO only; pAKTLC is obtained from cells treated with 10 uM Alpelisib. The IC50 (concentration achieving 50% inhibition of pAKT) is calculated by fitting the Curve using XWfit (v5.3.1.3), equation 201: Y=Bottom+(Top−Bottom)/(1+10^((Log IC50−X)*HillSlope)).

The subject of assay [4] is phosphorylation of AKT (pAKT) in SKBR3 cells express WT PI3Ka. The assay is described as follows: In vitro cell pAKT (Ser473) HTRF, SKBR3 cells. The conditions noted are these: inhibition of pAKT. The protocol: as §3, §4
On the technique in general: TR-FRET usually uses a lanthanide donor and a delayed reading to cut background.

As usually defined, the EC50 is the midpoint of the concentration-response curve. A word on the IC50: it is the midpoint of a concentration-inhibition curve.

Consider `COc1ccc2c(c1)CN(c1nc3c(C(C)Nc4ccccc4C(=O)O)cc(C)cc3c(=O)n1C)C2` (single isomer, unassigned) [Example 7, 2-((1-(2-(5-methoxyisoindolin-2-yl)-3,6-dimethyl-4-oxo-3,4-dihydroquinazolin-8-yl)ethyl)amino)benzoic acid], for which the EC50 is 0.5 to 2 µM in assay [1] and > 15 µM in assay [2] (Homo sapiens, SK-BR-3, 72 h). Moreover, the IC50 is 0.001 to 1 µM in assay [3] and > 15 µM in assay [4] (Homo sapiens, SK-BR-3, 6 h).
As for `COc1ccc2c(c1)CN(c1nc3c(C(C)Nc4ccccc4C(=O)O)cc(C)cc3c(=O)n1C)C2` (single isomer, unassigned) [Example 8, 2-((1-(2-(5-methoxyisoindolin-2-yl)-3,6-dimethyl-4-oxo-3,4-dihydroquinazolin-8-yl)ethyl)amino)benzoic acid], the half-maximal effective concentration (EC50) in assay [1] and in assay [2] was > 15 µM in each case. Besides, the IC50 in assay [3] and in assay [4] (6 hour) was > 15 µM each time.
For `Cc1cc(C(C)Nc2ccccc2C(=O)O)c2nc(N3Cc4ccc(Cl)cc4C3)n(C)c(=O)c2c1` (single isomer, unassigned) [Example 9, 2-((1-(2-(5-chloroisoindolin-2-yl)-3,6-dimethyl-4-oxo-3,4-dihydroquinazolin-8-yl)ethyl)amino)benzoic acid], the results for the EC50 in assay [1] and in assay [2] were 0.5 to 2 µM and > 15 µM, respectively. Besides, the IC50 in assay [3] was 1 to 5 µM; in assay [4] (Homo sapiens, SK-BR-3, 6 h), > 15 µM.
For `Cc1cc(C(C)Nc2ccccc2C(=O)O)c2nc(N3Cc4ccc(Cl)cc4C3)n(C)c(=O)c2c1` (single isomer, unassigned) [Example 10, 2-((1-(2-(5-chloroisoindolin-2-yl)-3,6-dimethyl-4-oxo-3,4-dihydroquinazolin-8-yl)ethyl)amino)benzoic acid], the concentration for a half-maximal effect (EC50) in assay [1] and in assay [2] was 2 to 15 µM throughout. The IC50 in assay [3] and in assay [4] (6 hour) was > 15 µM throughout.
Turning to `Cc1cc(C(C)Nc2ccccc2C(=O)O)c2nc(OCC(C)C)n(C)c(=O)c2c1` (single isomer, unassigned) [Example 11, 2-((1-(2-isobutoxy-3,6-dimethyl-4-oxo-3,4-dihydroquinazolin-8-yl)ethyl)amino)benzoic acid], the EC50 in assay [1] was 0.5 to 2 µM; in assay [2] (Homo sapiens, SK-BR-3, 72 h), > 15 µM. In addition, the half-inhibitory concentration (IC50) in assay [3] is 1 to 5 µM; in assay [4] (Homo sapiens, SK-BR-3, 6 h), > 15 µM.
For the molecule `Cc1cc(C(C)Nc2ccccc2C(=O)O)c2nc(OCC(C)C)n(C)c(=O)c2c1` (single isomer, unassigned) [Example 12, 2-((1-(2-isobutoxy-3,6-dimethyl-4-oxo-3,4-dihydroquinazolin-8-yl)ethyl)amino)benzoic acid], the concentration for a half-maximal effect (EC50) in assay [1] is 2 to 15 µM; in assay [2], > 15 µM. Besides, the half-inhibitory concentration (IC50) in assay [3] and in assay [4] (6 hour) was > 15 µM throughout.
Take `Cc1cc(C(C)Nc2ccc(Cl)cc2C(=O)O)c2nc(N3Cc4ccc(F)cc4C3)n(C)c(=O)c2c1` (single isomer, unassigned) [Example 13, 5-chloro-2-((1-(2-(5-fluoroisoindolin-2-yl)-3,6-dimethyl-4-oxo-3,4-dihydroquinazolin-8-yl)ethyl)amino)benzoic acid]: the concentration for a half-maximal effect (EC50) in assay [1] is 2 to 15 µM; in assay [2] it was > 15 µM. The IC50 was > 15 µM in assay [3] and > 15 µM in assay [4] (Homo sapiens, SK-BR-3, 6 h).
For `Cc1cc(C(C)Nc2ccc(Cl)cc2C(=O)O)c2nc(N3Cc4ccc(F)cc4C3)n(C)c(=O)c2c1` (single isomer, unassigned) [Example 14, 5-chloro-2-((1-(2-(5-fluoroisoindolin-2-yl)-3,6-dimethyl-4-oxo-3,4-dihydroquinazolin-8-yl)ethyl)amino)benzoic acid], the concentration for a half-maximal effect (EC50) fell in the range of 0.001 to 0.5 µM in assay [1] and 2 to 15 µM in assay [2]. Besides, the figures for the IC50 in assay [3] and in assay [4] (6 hour) were 1 to 5 µM and > 15 µM, respectively.
For `Cc1cc(C(C)Nc2ccccc2C(=O)O)c2nc(N3Cc4ccc(C#N)cc4C3)n(C)c(=O)c2c1` (single isomer, unassigned) [Example 17, 2-((1-(2-(5-cyanoisoindolin-2-yl)-3,6-dimethyl-4-oxo-3,4-dihydroquinazolin-8-yl)ethyl)amino)benzoic acid], the 50% effective concentration (EC50) was 0.001 to 0.5 µM in assay [1] and > 15 µM in assay [2] (Homo sapiens, SK-BR-3, 72 h). For the same molecule, the IC50 is 0.001 to 1 µM in assay [3] and > 15 µM in assay [4] (Homo sapiens, SK-BR-3, 6 h).
Regarding `Cc1cc(C(C)Nc2ccccc2C(=O)O)c2nc(N3Cc4ccc(C#N)cc4C3)n(C)c(=O)c2c1` (single isomer, unassigned) [Example 18, 2-((1-(2-(5-cyanoisoindolin-2-yl)-3,6-dimethyl-4-oxo-3,4-dihydroquinazolin-8-yl)ethyl)amino)benzoic acid], the EC50 in assay [1] and in assay [2] was > 15 µM each time. Moreover, the IC50 in assay [3] and in assay [4] (6 hour) was > 15 µM throughout.
Regarding `Cc1cc2c(=O)n(C)c(N3CCN(CC(F)(F)F)CC3)nc2c(C(C)Nc2ccccc2C(=O)O)c1F` (single isomer, unassigned) [Example 20, 2-((1-(7-fluoro-3,6-dimethyl-4-oxo-2-(4-(2,2,2-trifluoroethyl)piperazin-1-yl)-3,4-dihydroquinazolin-8-yl)ethyl)amino)benzoic acid], the half-maximal effective concentration (EC50) in assay [1] is 0.5 to 2 µM; in assay [2] (Homo sapiens, SK-BR-3, 72 h) it was > 15 µM. Further, the half-maximal inhibitory concentration (IC50) was 0.001 to 1 µM in assay [3] and > 15 µM in assay [4] (Homo sapiens, SK-BR-3, 6 h).
Regarding `Cc1cc2c(=O)n(C)c(N3CCN(CC(F)(F)F)CC3)nc2c(C(C)Nc2ccccc2C(=O)O)c1F` (single isomer, unassigned) [Example 21, 2-((1-(7-fluoro-3,6-dimethyl-4-oxo-2-(4-(2,2,2-trifluoroethyl)piperazin-1-yl)-3,4-dihydroquinazolin-8-yl)ethyl)amino)benzoic acid], the 50% effective concentration (EC50) in assay [1] and in assay [2] was > 15 µM throughout. Moreover, the IC50 in assay [3] and in assay [4] (6 hour) was > 15 µM each time.
Turning to `CC(Nc1ccccc1C(=O)O)c1cc(Cl)cc2c(=O)n(C)c(N3CCC(C)(C)CC3)nc12` (single isomer, unassigned) [Example 22, 2-((1-(6-chloro-2-(4,4-dimethylpiperidin-1-yl)-3-methyl-4-oxo-3,4-dihydroquinazolin-8-yl)ethyl)amino)benzoic acid], the figures for the EC50 in assay [1] and in assay [2] were 0.5 to 2 µM and > 15 µM, respectively. The IC50 in assay [3] was 0.001 to 1 µM; in assay [4] (Homo sapiens, SK-BR-3, 6 h), > 15 µM.
As to `CC(Nc1ccccc1C(=O)O)c1cc(Cl)cc2c(=O)n(C)c(N3CCC(C)(C)CC3)nc12` (single isomer, unassigned) [Example 23, 2-((1-(6-chloro-2-(4,4-dimethylpiperidin-1-yl)-3-methyl-4-oxo-3,4-dihydroquinazolin-8-yl)ethyl)amino)benzoic acid], the EC50 in assay [1] and in assay [2] was 2 to 15 µM throughout. Also, the half-inhibitory concentration (IC50) in assay [3] and in assay [4] (6 hour) was > 15 µM each time.
As for `CC(Nc1ccc(F)cc1C(=O)O)c1cc(Cl)cc2c(=O)n(C)c(N3CCN(CC(F)(F)F)CC3)nc12` (single isomer, unassigned) [Example 24, 2-((1-(6-chloro-3-methyl-4-oxo-2-(4-(2,2,2-trifluoroethyl)piperazin-1-yl)-3,4-dihydroquinazolin-8-yl)ethyl)amino)-5-fluorobenzoic acid], the EC50 in assay [1] was in the range of 0.001 to 0.5 µM; in assay [2] (Homo sapiens, SK-BR-3, 72 h) it was 2 to 15 µM. In addition, the IC50 in assay [3] was 0.001 to 1 µM; in assay [4] (Homo sapiens, SK-BR-3, 6 h), > 15 µM.
